Patent US20120178124A1, “STEROL SIDE CHAIN-CLEAVING ENZYME PROTEIN AND USE THEREOF” (MITSUBISHI CHEMICAL CORPORATION, priority 2009, published 2012)
Where two headings read alike, the source gives them in different places.

Key:
CYPSS204A = test: Conversion reaction of substrates by Escherichia coli expression strain BP215; format: cell-based, Sphingomonas subterranea NBRC 16086
Experimental: The temperature conditions applied during the PCR were 95° C./5 min, 30 cycles of (98° C./30 sec, 60° C./30 sec, and 68° C./2 min), and 68° C./10 min.
Analysis conditions: Using Chromolith speed rod RP18e (50×4.6 mm) column, 50%→100% CH3CN gradient (0 to 3 min) and 100% CH3CN (3 to 8 min) were used as a mobile phase, and detection was carried out at a flow rate of 2 ml/min using CAD™ (Charged Aerosol Detection) and MS.

CYP204A1 = conditions: for Conversion rate: strain BP172, same reaction as Example 6 (28° C., 5 hours); for accumulated amount of pregnenolone / added substrate remained: strain BP172, same reaction as Example 6
Experimental: Novosphingobium aromaticivorans (ATCC 700278) was inoculated into an L medium, and it was then cultured at 30° C. for 2 days. Thereafter, genomic DNA was extracted from the cell mass obtained in the same manner as that of Example 1. A fragment comprising a CYPSS204A1 gene and a ferredoxin gene located downstream thereof was amplified from the above-described genomic DNA by using a primer CYP-5F (SEQ ID NO: 9) and a primer CYP-6R (SEQ ID NO: 10) and also using La Taq polymerase (manufactured by Takara Bio INC.). The temperature conditions applied during this operation were 94° C./3 min, 30 cycles of (98° C./20 sec, 63° C./30 sec, and 68° C./2 min), and 72° C./5 min.
Escherichia coli BL21(DE3) was transformed with this plasmid, and the obtained cell strain was named as BP172.
(§1) The Escherichia coli expression strain BP215 was inoculated into 2 ml of an M9 mix medium (Na2HPO4: 0.68%, KH2PO4: 0.3%, NaCl: 0.05%, NH4C;: 0.01%, Casamino acid: 1%, D-Glucose: 0.4%, CaCl2: 0.1 mM, MgCl2: 1 mM, Thiamine: 0.002%, FeSO4: 0.1 mM, Carbenicillin: 0.005%), and it was then subjected to shaking culture at 30° C. for 17 hours, so as to obtain pre-culture solution. 0.25 ml of this pre-culture solution was inoculated into 25 ml of the main culture medium (Na2HPO4: 0.68%, KH2PO4: 0.3%, NaCl: 0.05%, NH4Cl: 0.01%, Casamino acid: 1%, CaCl2: 0.1 mM, MgCl2: 1 mM, Thiamine: 0.002%, FeSO4: 0.1 mM, Carbenicillin: 0.005%, Overnight Express™ solution: 7%, 5-Aminolevlic acid: 0.008%) using Overnight Express™ Autoinduction System (Novagen Cat. No. 71300-4), and it was then subjected to shaking culture at 25° C. for 24 hours. 5 ml of the obtained main culture solution was centrifuged (3500 rpm, 10 minutes) to obtain cell mass, and 1 ml of CV2 buffer (50 mM (pH) potassium phosphate buffer containing glycerol: 2%, carbenicillin: 0.005%, and isopropyl β-D-1-thiogalactopyranoside: 0.1 mM) was added to the obtained cell mass. Thereafter, 0.01 ml of the methanol solution of 1% 4-cholesten-3-one and 0.02 ml of an aqueous solution of 25% methyl-β-cyclodextrin were added to the mixed solution, and the obtained mixture was then shaken at 28° C. for 5 hours for the reaction. After completion of the reaction, 4 ml of methanol was added to the reaction solution, and they were then fully mixed. The obtained mixture was centrifuged, and the upper layer was then analyzed by HPLC.
As substrates, 4-cholesten-3-one, cholesterol, 7-dehydrocholesterol, ergosterol, 13-sitosterol, stigmasterol, campesterol, desmosterol, (20S)-20-hydroxycholest-4-en-3-one, (22R)-22-hydroxycholest-4-en-3-one, (20R,22R)-20,22-dihydroxycholest-4-en-3-one, and (20R,22S)-20,22-dihydroxycholest-4-en-3-one were used. Each substrate was subjected to the same reaction as that of Example 6, separately, and the generated product was then analyzed by HPLC.

CYP11A = target: T1, CYP11A (Homo sapiens, UniProt P05108); test: Conversion reaction of substrates by CYP11A-expressing Escherichia coli; format: cell-based; conditions: for added substrate remained / accumulated amount of pregnenolone: same reaction as Example 6; for Conversion rate: same reaction as Example 6 (28° C., 5 hours)
T1 construct: A 1.45-kb CYP11A1 gene fragment amplified as a result of the above-described reaction; expressed in transfected cells; host or cells: Escherichia coli BL21(DE3), plasmid pCYP11A-ARX (strain BL21CYP11)
T1 sequence (P05108 40-521): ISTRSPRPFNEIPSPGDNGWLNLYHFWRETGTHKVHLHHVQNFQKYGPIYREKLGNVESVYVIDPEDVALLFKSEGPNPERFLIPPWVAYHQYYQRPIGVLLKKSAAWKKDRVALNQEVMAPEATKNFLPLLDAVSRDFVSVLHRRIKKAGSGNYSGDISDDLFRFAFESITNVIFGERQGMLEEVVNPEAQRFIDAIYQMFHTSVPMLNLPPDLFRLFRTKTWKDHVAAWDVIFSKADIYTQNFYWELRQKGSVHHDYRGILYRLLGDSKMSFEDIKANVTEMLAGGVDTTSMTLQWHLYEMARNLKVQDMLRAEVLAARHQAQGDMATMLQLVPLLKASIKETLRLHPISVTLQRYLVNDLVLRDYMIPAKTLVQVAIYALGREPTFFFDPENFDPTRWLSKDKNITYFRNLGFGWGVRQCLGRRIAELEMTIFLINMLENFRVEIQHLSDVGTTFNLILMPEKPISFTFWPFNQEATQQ
Experimental: as §1
A commercially available human testis cDNA (Origene Technologies, Inc.) was used as a template, and a CYP11A1 gene was amplified by PCR using a primer CYP11A-1F (SEQ ID NO: 19) and a primer CYP11A-2R (SEQ ID NO: 20), and also using KOD plus polymerase (TOYOBO Co., Ltd.). The temperature conditions applied during the PCR were 94° C./3 min, 30 cycles of (94° C./30 sec, 55° C./60 sec, and 72° C./90sec), and 72° C./5 min.
A 1.45-kb CYP11A1 gene fragment amplified as a result of the above-described reaction was purified using QIAquick PCR purification Kit (manufactured by QIAGEN), and it was then digested with Nde I and Spe I. Thereafter, the digest was ligated to Escherichia coli expression vector pT7NS-camAB, using T4 DNA ligase, and Escherichia coli DH5α was then transformed with the obtained expression vector, so as to construct a plasmid pCYP11A-camAB. Subsequently, using T4 DNA ligase, the previously prepared bovine-derived adrenodoxin reductase protein-adrenodoxin gene (adr-adx) fragment was inserted into and ligated to each of the Spe I and Bam HI sites of the above-described plasmid, and Escherichia coli DH5a was then transformed with the obtained plasmid, so as to construct plasmid pCYP11A-ARX. Thereafter, Escherichia coli BL21(DE3) was transformed with the thus constructed plasmid, and the obtained cell strain was named as BL21CYP11. The used adx-adr fragment was amplified by PCR with a plasmid pKARX (Sawada et. al. Eur. J. Biochem. 265, 950-956,1999) as a template, using primer bAdxR-1F (SEQ ID NO: 21) and primer bAdx-2R (SEQ ID NO: 22), and also using KOD plus polymerase (manufactured by TOYOBO Co., Ltd.). The temperature condition applied during the PCR were 94° C./3 min, 25 cycles of (94° C./30 sec, 60° C./30 sec, and 72° C./120sec), and 72° C./5 min.
Each substrate was subjected to the same reaction as that of Example 6, separately, and the reaction solution was then subjected to liquid separation using 1 ml of ethyl acetate. The reaction product and the substrate were extracted, and were then analyzed by HPLC.

[1] = strain BP215, 28° C., 5 hours, to progesterone, pregnenolone or 7-dehydropregnenolone

Row | SMILES | accumulated amount of side-chain cleavage product (CYPSS204A; strain BP215, 28° C., 5 hours) [mg/L] | added substrate remained (CYPSS204A; strain BP215, 28° C., 5 hours) [%] | Conversion rate (CYPSS204A; [1]) [%] | Conversion rate (CYP204A1) [%] | added substrate remained (CYP11A) [%] | Conversion rate (CYP11A) [%] | Conversion rate (CYPSS204A; strain BP215, 28° C., 5 hours, to progesterone, pregnenolone or 7-dehydropregnenolone, listed as 20-OH) [%] | Conversion rate (CYP11A; listed as Cam) [%] | accumulated amount of pregnenolone (CYPSS204A; strain BP215, 28° C., 5 hours) [mg/L] | accumulated amount of pregnenolone (CYP204A1) [mg/L] | added substrate remained (CYP204A1) [%] | accumulated amount of pregnenolone (CYP11A) [mg/L] | Conversion rate (CYPSS204A) [%]
1 | CC(C)CCC[C@@H](C)[C@H]1CC[C@H]2C3=CC=C4C[C@@H](O)CC[C@]4(C)[C@H]3CC[C@]12C [7-dehydrocholesterol] | 34.3 | 54 | 34.3 | 28.5 | 99.2 | 0.7 |  |  |  |  |  |  | 
2 | CC(C)CCC[C@](C)(O)[C@H]1CC[C@H]2[C@@H]3CCC4=CC(=O)CC[C@]4(C)[C@H]3CC[C@@]21C [(20S)-20-hydroxycholest-4-en-3-one] |  | 4.8 | 41.0 | 63.9 | 100 | 0 | 41 |  |  |  |  |  | 
3 | CC(C)[C@H](C)CC[C@@H](C)[C@H]1CC[C@H]2[C@@H]3CC=C4C[C@@H](O)CC[C@]4(C)[C@H]3CC[C@]12C [campesterol] | 27.9 | 25.5 | 27.9 | 31.3 | 99.1 | 1.0 |  | 1 |  |  |  |  | 
4 | CC(C)CC[C@@H](O)[C@@H](C)[C@H]1CC[C@H]2[C@@H]3CCC4=CC(=O)CC[C@]4(C)[C@H]3CC[C@]12C [(22R)-22-hydroxycholest-4-en-3-one] |  | 2.7 | 42.3 | 80.9 | 99.7 | 0.4 |  |  |  |  |  |  | 
5 | CC(C)=CCC[C@@H](C)[C@H]1CC[C@H]2[C@@H]3CC=C4C[C@@H](O)CC[C@]4(C)[C@H]3CC[C@]12C [desmosterol] | 71.7 | 21.3 | 71.7 | 66.1 | 99.6 | 1.2 |  |  |  |  |  |  | 
6 | CC(C)CC[C@@H](O)[C@](C)(O)[C@H]1CC[C@H]2[C@@H]3CC=C4C[C@@H](O)CC[C@]4(C)[C@H]3CC[C@]12C [(20R,22R)-20,22-dihydroxy-cholesterol] |  | 0 | 53.0 | 51.6 | 51.6 | 32.3 |  |  | 53.0 | 51.6 | 0 | 32.3 | 
7 | CC(C)CCC[C@](C)(O)[C@H]1CC[C@H]2[C@@H]3CC=C4C[C@@H](O)CC[C@]4(C)[C@H]3CC[C@@]21C [(20S)-20-hydroxy-cholesterol] |  | 0 | 89.2 | 68.2 | 98.8 | 16.3 |  |  | 89.2 | 68.2 | 25.2 | 16.3 | 
8 | CC(C)CC[C@@H](O)[C@](C)(O)[C@H]1CC[C@H]2[C@@H]3CCC4=CC(=O)CC[C@]4(C)[C@H]3CC[C@]12C [(20R,22R)-20,22-dihydroxycholest-4-en-3-one] |  | 0.6 | 38.1 | 61.3 | 95 | 4.3 |  |  |  |  |  |  | 
9 | CC(C)[C@@H](C)/C=C/[C@@H](C)[C@H]1CC[C@H]2C3=CC=C4C[C@@H](O)CC[C@]4(C)[C@H]3CC[C@]12C [ergosterol] | 2.8 |  |  |  | 100 | 0 |  |  |  |  |  |  | 2.8
10 | CC(C)CCC[C@@H](C)[C@H]1CC[C@H]2[C@@H]3CC=C4C[C@@H](O)CC[C@]4(C)[C@H]3CC[C@]12C [cholesterol] | 68.2 | 3.7 | 68.2 | 71.2 | 99 | 2.6 |  |  |  |  |  |  | 
11 | CC(C)CC[C@H](O)[C@](C)(O)[C@H]1CC[C@H]2[C@@H]3CCC4=CC(=O)CC[C@]4(C)[C@H]3CC[C@]12C [(20R,22S)-20,22-dihydroxycholest-4-en-3-one] |  | 0.6 | 69.8 | 41.7 | 100 | 0 |  |  |  |  |  |  | 
12 | CC(C)CC[C@H](O)[C@@H](C)[C@H]1CC[C@H]2[C@@H]3CC=C4C[C@@H](O)CC[C@]4(C)[C@H]3CC[C@]12C [(22S)-22-hydroxy-cholesterol] |  | 23.5 | 37.5 | 12.9 | 92.6 | 6.1 |  |  | 37.5 | 12.9 | 60.1 | 6.1 | 
